Legend:
[1] = test system: plasmid DNA; experiment: absorption of free molecules before and after addition of plasmid DNA; assay type: physicochemical; set-up: Absorption maxima free dye / Absorption maxima DNA bound dye: unit not given here; settings: for Absorption maxima DNA bound dye: after addition of plasmid DNA; for Absorption maxima free dye: free molecule, before addition of plasmid DNA
Method: (§1) Plasmid dsDNA was purified using a Qiagen Maxiprep kit and used in the supercoiled form for absorption and fluorescence studies. E. coli total RNA was bought from Ambion, dA/dT and dG/dC homopolymers were purchased from Amersham Biosciences. Calf thymus (CT) high-molecular weight DNA and Hoechst 33258 were obtained from Sigma-Aldrich. Ethidium bromide was purchased from Amresco.
(§2) Spectrometry and fluorimetry were performed using a SpectraMax384 (Molecular Devices) and a Luminescence Spectrometer LS50B (Perkin Elmer). Fluorescence emission of compound I in complex with DNA and RNA was measured in 50 mM Na phosphate buffer, pH 7.2 at room temperature. Before use, total E. coli RNA was heated to 100° C. for 1 min and immediately transferred on ice for 5 min before mixing with compound I solution. All measurements were carried out at room temperature (20-23° C.) in solutions protected from light and incubated for ˜10-15 min after dilution. The units of b/dye and bp/dye are defined as moles of RNA bases or DNA base pairs per mole of dye. Quantum yield was measured using quinine sulphate as standard as described in (Iupac Commission on Photochemistry, EPA Newsletter of November 1986, 21-29) using FLUOROMAX-3 Spex Spectrofluorometer (HORIBA) and UVIKON XL Spectrophotometer (SECOMAM).
(§3) Although compound I also stains mitotic chromosomes (FIG. 1D), theoretically it was possible that it binds specifically to DNA-associated proteins (for example histones) rather than to nucleic acids. To resolve this issue, the absorption and emission spectra of free compound I before and after addition of dsDNA were recorded. […] Molar extinction coefficient (EC) of free compound I at 391 nm was measured at 10,800 cm^−1 M^−1. In the presence of ds plasmid DNA the absorption peaks of compound I at 373 and 391 nm decreased, and a new peak appears with a maximum at 435 nm (FIG. 1E). An overlay of the absorption spectra in complex with dsDNA at different bp per dye ratios gives a single isosbestic point at 398 nm. Free compound I fluoresces around 438 nm (the exact position of the peak depends on the excitation wavelength). […] At the same time, a new peak evolves with a maximum around 484 nm (FIG. 1F). The exact maximum of fluorescence of compound I/DNA complexes varies insignificantly as a function of the dye/bp ratio and/or base pairs composition of the nucleic acids. […] The quantum yield for compound I (excited at 435 nm) at 5 μM in 50 mM Na-phosphate, pH 7.2, was determined to be 2.7% for free dye and 13.8% in admixture with 50 μM CT DNA.
(§4) To get a further insight into how the structural properties of compound I contribute to its binding to DNA, the inventors analysed fourteen structural analogues present in the compound library. Although several of these compounds are fluorescent in vivo, this property went undetected in the initial screen most likely due to the latency period before the appearance of the signal (see below). To evaluate the activity of compound I-like molecules three tests were used: (1) in vivo, the inventors incubated human fibroblasts in the presence of the molecules and scored nuclear fluorescence in the microscope; (2 and 3) in vitro, the inventors looked at the absorption and fluorescence of free molecules before and after addition of plasmid DNA. […] With the exception of compound I and analogues 8 and 12, accurate in vitro measurement of the fluorescence intensities was impossible because the emission peaks for the free molecules were too close to that for the DNA-bound dye. This affected the height of the dye/DNA peaks.

[2] = test system: plasmid DNA; experiment: fluorescence of free molecules before and after addition of plasmid DNA; assay type: physicochemical; set-up: Fluorescence maxima free dye / Fluorescence maxima DNA bound dye: unit not given beside the values; settings: for Fluorescence maxima free dye: free molecule, before addition of plasmid DNA; for Fluorescence maxima DNA bound dye: after addition of plasmid DNA
Method: as §1, §2, §3, §4

[3] = test system: human fibroblasts; experiment: in vivo nuclear fluorescence of human fibroblasts incubated with the molecules, scored in the microscope; assay type: cell-based; set-up: key: Weak: Staining was defined as “weak”, “moderate” or “strong” based on the nuclear signal/background ratio.; Moderate: Staining was defined as “weak”, “moderate” or “strong” based on the nuclear signal/background ratio.; Strong: Staining was defined as “weak”, “moderate” or “strong” based on the nuclear signal/background ratio; settings: 10 μM, 10-60 min (up to 24 hours); Alexa488/FITC filter
Method: In this study, three different types of cells were used: Xenopus epithelial cell line XL177 (Miller, L. et al., 1977, In Vitro, 13, 557-563) stably transformed with a YFP-α-tubulin expressing construct (pEYFP-Tub, Clontech), mouse fibroblasts, and primary human skin fibroblasts. XL177 cells were grown at 20° C. in 60% Leibowitz-15 medium, supplemented with antibiotics, 10% fetal calf serum (FCS) and 10 mM HEPES, pH 7.2 with addition of 0.7 mg/ml G418. Cells were plated into glass-bottom 96-well plates (Greiner, Germany) and left to spread for 24 hours before being incubated in the presence of the test compounds from the Curie-CNRS small molecule library (at 25 or 50 μM final concentration) for another 20-24 hours. Mouse and human fibroblasts were grown in DMEM with antibiotics and 10% FCS at 37° C. in the presence of 5% CO2. The cells were observed using a Zeiss Axiovert 200M microscope with a 40× oil immersion objective and a standard Alexa488/FITC filter (Omega, XF100-2; Ex475AF40/Em535AF45/Dichroic505). Subsequent experiments were carried out using smaller concentrations of compound I and incubation times as described in the text and figures legends. For the in vivo tests of compound I-like compounds, the molecules were added to cell culture medium at 10 μM final concentration and incubated with cells 10-60 min (up to 24 hours) prior to scoring.
as §4

## Cc1nc2c3ccccc3cnc2c2ccccc12 [Compound 1, 6-Methyl-dibenzo[c,h][1,5]naphthyridine]
other
  melting point: 153 °C

## CCN(CC)CCCNCc1nc2c3ccccc3cnc2c2ccccc12 [Compound 2, N′-Dibenzo[c,h][1,5]naphthyridin-6-ylmethyl-N,N-diethyl-propane-1,3-diamine]
[1]
  Absorption maxima DNA bound dye: 365
  Absorption maxima free dye: 360

## OCCNCCNc1nc2c3ccccc3cnc2c2ccccc12 [Compound 3, 2-[2-(Dibenzo[c,h][1,5]naphthyridin-6-ylamino)-ethylamino]-ethanol]
other
  melting point: 100 °C
[1]
  Absorption maxima DNA bound dye: 375/375
  Absorption maxima free dye: 375/375

## CN(C)CCNc1nc2c3ccccc3cnc2c2ccccc12 [Compound 4, N′-Dibenzo[c,h][1,5]naphthyridin-6-yl-N,N-dimethyl-ethane-1,3-diamine]
[2]
  Fluorescence maxima free dye: 404/ND
[1]
  Absorption maxima DNA bound dye: 375
  Absorption maxima free dye: 370

## CN(C)CCNCc1nc2c3ccccc3cnc2c2ccccc12 [Compound 5, N′-dibenzo[c,h][1,5]naphthyridin-6-yl-methyl-N,N-dimethyl-ethane-1,2-diamine]
other
  melting point: 160 °C

## CN(C)CCCNCc1nc2c3ccccc3cnc2c2ccccc12 [Compound 6, N′-dibenzo[c,h][1,5]naphthyridin-6-yl-methyl-N,N-dimethyl-propane-1,3-diamine]
other
  melting point: 45 °C

## CC(CO)(CO)NCc1nc2c3ccccc3cnc2c2ccccc12 [Compound 7, N′-dibenzo[c,h][1,5]naphthyridin-6-yl-methylamino-2-methyl-propane-1,3-diol]
other
  melting point: 156 °C
[1]
  Absorption maxima free dye: 365/ND

## COc1ccc2c(c1)c(C)nc1c3ccccc3c(NCCCN(C)C)nc21 [Compound 8, N′-(2-methoxy-12-methyl-dibenzo[c,h][1,5]naphthyridin-6-yl)-N,N-dimethyl-propane-1,3-diamine]
other
  melting point: 139 °C
[2]
  Fluorescence maxima DNA bound dye: 468
  Fluorescence maxima free dye: 427
[1]
  Absorption maxima DNA bound dye: 425
  Absorption maxima free dye: 385

## COc1ccc2c(c1)c(NCCN(C)C)nc1c3ccccc3c(NCCN(C)C)nc21 [Compound 9, N6,N12-bis-(2-dimethylamino-ethyl)-2-methoxy-dibenzo[c,h][1,5]naphthyridin-6,12-diamine]
other
  melting point: 169 °C
[2]
  Fluorescence maxima DNA bound dye: 472
  Fluorescence maxima free dye: 468
[1]
  Absorption maxima DNA bound dye: 395
  Absorption maxima free dye: 375
[3]
  Images of the in vivo nuclear staining: Weak

## COc1ccc2c(c1)c(NCCCN(C)C)nc1c3ccccc3c(NCCCN(C)C)nc21 [Compound 10, N6,N12-bis-(3-dimethylamino-propyl)-2-methoxy-dibenzo[c,h][1,5]naphthyridine-6,12-diamine]
other
  melting point: 155 °C
[2]
  Fluorescence maxima DNA bound dye: 485
  Fluorescence maxima free dye: 478
[1]
  Absorption maxima DNA bound dye: 402
  Absorption maxima free dye: 380
[3]
  Images of the in vivo nuclear staining: Moderate/ Strong

## COc1ccc2c(c1)c(NCCCN(C)C)nc1c3ccc(OC)cc3c(NCCCN(C)C)nc21 [Compound 11, N,N′-bis-(3-dimethylaminopropyl)-2,8-dimethoxy-dibenzo[c,h][1,5]naphthyridin-6,12-diamine]
other
  melting point: 216 °C
[2]
  Fluorescence maxima DNA bound dye: 500
  Fluorescence maxima free dye: 484
[1]
  Absorption maxima DNA bound dye: 405
  Absorption maxima free dye: 390
[3]
  Images of the in vivo nuclear staining: Moderate/ Strong

## COc1ccc2c(c1)c(C)nc1c3ccc(OC)cc3c(NCCN(C)C)nc21 [Compound 12, N′-(2,8-dimethoxy-12-methyl-dibenzo[c,h][1,5]naphthyridin-6-yl)-N,N-dimethyl-ethane-1,3-diamine]
[2]
  Fluorescence maxima DNA bound dye: 475
  Fluorescence maxima free dye: 435
[1]
  Absorption maxima DNA bound dye: 435
  Absorption maxima free dye: 390
[3]
  Images of the in vivo nuclear staining: Weak

## COc1ccc2c(cnc3c4ccc(OC)cc4c(NCCN(C)C)nc23)c1 [Compound 13, N′-(2,8-dimethoxy-dibenzo[c,h][1,5]naphthyridin-6-yl)-N,N-dimethyl-ethane-1,3-diamine]
[2]
  Fluorescence maxima DNA bound dye: 407
  Fluorescence maxima free dye: 425
[1]
  Absorption maxima DNA bound dye: 394
  Absorption maxima free dye: 390
[3]
  Images of the in vivo nuclear staining: Moderate^§

## COc1ccc2c(c1)c(NCCN(C)C)nc1c3ccc(OC)cc3c(NCCN(C)C)nc21 [Compound 14, N,N′-bis-(3-dimethylamino-ethyl)-2,8-dimethoxy-dibenzo[c,h][1,5]naphthyridin-6,12-diamine]
other
  melting point: 209 °C
[2]
  Fluorescence maxima DNA bound dye: 482
  Fluorescence maxima free dye: 468
[1]
  Absorption maxima DNA bound dye: 400/400
  Absorption maxima free dye: 400/400
[3]
  Images of the in vivo nuclear staining: Weak
